The experiment deals with RNA-directed RNA polymerase (Hepacivirus hominis, UniProt O39930). Put plainly: Inhibitory activity against HCV delta 21 NS5B RNA polymerase by SPA assay. Details: species or system Hepatitis C virus subtype 1b.

For 84 compounds, IC50 results are on record in ChEMBL document CHEMBL1148625, “3-(1,1-dioxo-2H-(1,2,4)-benzothiadiazin-3-yl)-4-hydroxy-2(1H)-quinolinones, potent inhibitors of hepatitis C virus RNA-dependent RNA polymerase” (J Med Chem, 2006).

Molecules are shown by their SMILES.

As a reminder, the IC50 is the point on the concentration scale where inhibition reaches its midpoint.

RNA-directed RNA polymerase, sequence (O39930 whole entry): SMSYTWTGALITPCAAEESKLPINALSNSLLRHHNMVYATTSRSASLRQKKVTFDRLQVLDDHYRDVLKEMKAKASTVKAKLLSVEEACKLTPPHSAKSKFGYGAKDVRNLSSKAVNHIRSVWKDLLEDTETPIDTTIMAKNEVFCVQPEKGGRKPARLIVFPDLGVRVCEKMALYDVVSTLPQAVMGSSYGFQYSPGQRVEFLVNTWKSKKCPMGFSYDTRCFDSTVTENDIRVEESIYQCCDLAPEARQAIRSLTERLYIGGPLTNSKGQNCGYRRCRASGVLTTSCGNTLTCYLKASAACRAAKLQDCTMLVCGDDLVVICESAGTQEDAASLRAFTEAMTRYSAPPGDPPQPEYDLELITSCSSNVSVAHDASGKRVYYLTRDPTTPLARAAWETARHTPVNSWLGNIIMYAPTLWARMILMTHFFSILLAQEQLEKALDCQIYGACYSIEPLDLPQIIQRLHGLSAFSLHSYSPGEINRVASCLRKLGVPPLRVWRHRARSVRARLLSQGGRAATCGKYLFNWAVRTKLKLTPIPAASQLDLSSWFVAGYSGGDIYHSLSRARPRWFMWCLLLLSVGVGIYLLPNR

Turning to `O=c1c(C2=NS(=O)(=O)c3ccccc3N2)c(O)c2ccccc2n1CCCC(F)(F)F`, the IC50 stood at 106 nM.

Consider `O=c1c(C2=NS(=O)(=O)c3ccccc3N2)c(O)c2ccccc2n1Cc1ccccn1`, for which the IC50 was found to be 2690 nM. This IC50 lies about 25-fold higher than the previous one.

For the compound `O=c1c(C2=NS(=O)(=O)c3ccccc3N2)c(O)c2ccccc2n1CCO`, the 50% inhibitory concentration (IC50) was above 10000 nM.

In turn, `COC(C)CCn1c(=O)c(C2=NS(=O)(=O)c3ccccc3N2)c(O)c2ccccc21` (centres undefined) showed an IC50 of 82 nM.

Regarding `COc1ccc2c(c1)c(O)c(C1=NS(=O)(=O)c3ccccc3N1)c(=O)n2CCC(C)C`, the concentration for half-maximal inhibition (IC50) is 23 nM.

On to `CC(C)CCn1c(=O)c(C2=Nc3ccccc3S(=O)(=O)N2)c(O)c2cc(NCC(=O)O)ccc21`, for which the IC50 was 21 nM.

For the compound `CCOC(=O)n1c(=O)c(C2=NS(=O)(=O)c3ccccc3N2)c(O)c2ccccc21`, 2040 nM corresponded to half-maximal inhibition (IC50).

For `CC(C)CCn1c(=O)c(C2=Nc3ccccc3S(=O)(=O)N2)c(O)c2cc(NC(=O)C3CCCC3)ccc21`, the IC50 came out at 973 nM.

`Cn1c(=O)c(C2=NS(=O)(=O)c3ccccc3N2)c(O)c2ccccc21` displayed an IC50 of 5590 nM.

Compound `CC(C)CCn1c(=O)c(C2=NS(=O)(=O)c3ccccc3N2)c(O)c2c([N+](=O)[O-])cccc21` displayed a half-inhibitory concentration (IC50) of 338 nM.

The compound `CC(C)CCn1c(=O)c(C2=Nc3ccccc3S(=O)(=O)N2)c(O)c2cc(OCc3ccccc3)ccc21` had an IC50 of 3950 nM.

`CC(C)=CCn1c(=O)c(C2=Nc3ccccc3S(=O)(=O)N2)c(O)c2ccccc21`: the half-inhibitory concentration (IC50) is 289 nM.

Turning to `N#CCCCn1c(=O)c(C2=NS(=O)(=O)c3ccccc3N2)c(O)c2ccccc21`, the IC50 stood at 172 nM.

Compound `CC(C)CCn1c(=O)c(C2=Nc3ccccc3S(=O)(=O)N2)c(O)c2c(F)cccc21` came in with a 50% inhibitory concentration (IC50) of 340 nM.

As to `CC(C)CCn1c(=O)c(C2=NS(=O)(=O)c3ccccc3N2)c(O)c2c(O)cccc21`, the concentration for half-maximal inhibition (IC50) worked out at 47 nM.

For the compound `O=c1c(C2=Nc3ccccc3S(=O)(=O)N2)c(O)c2ccccc2n1CCCCO`, it took 1300 nM to reach half-maximal inhibition (IC50).

Turning to `CC(CCn1c(=O)c(C2=NS(=O)(=O)c3ccccc3N2)c(O)c2ccccc21)C(F)(F)F` (centres undefined), the IC50 came out at 44 nM. Against the preceding compound, the IC50 is about 30-fold lower.

In turn, `CC(C)CCn1c(=O)c(C2=NS(=O)(=O)c3ccccc3N2C)c(O)c2ccccc21` displayed an IC50 above 2430 nM.

`C/C=C/Cn1c(=O)c(C2=Nc3ccccc3S(=O)(=O)N2)c(O)c2ccccc21` yielded an IC50 of 150 nM.

The compound `COCCOc1ccc2c(c1)c(O)c(C1=NS(=O)(=O)c3ccccc3N1)c(=O)n2CCC(C)C` returned an IC50 of 1740 nM.

`CC(C)CCn1c(=O)c(C2=Nc3ccccc3S(=O)(=O)N2)c(O)c2cc([N+](=O)[O-])ccc21` came in with a concentration for half-maximal inhibition (IC50) of 455 nM.

As to `C#CCCCn1c(=O)c(C2=Nc3ccccc3S(=O)(=O)N2)c(O)c2ccccc21`, half-maximal inhibition (IC50) required 179 nM.

`O=c1c(C2=NS(=O)(=O)c3ccccc3N2)c(O)c2ccccc2n1CCCO` came in with a concentration for half-maximal inhibition (IC50) of 2810 nM.

In turn, `CC(C)CCn1c(=O)c(C2=Nc3ccccc3S(=O)(=O)N2)c(O)c2c(-c3ccccc3)cccc21` had an IC50 of 144 nM.

Consider `O=c1[nH]c(-c2c(O)c3cc(F)ccc3n(CCC3CC3)c2=O)nc2ccccc12`, for which the IC50 is above 10000 nM.

`CCCCCn1c(=O)c(C2=Nc3ccccc3S(=O)(=O)N2)c(O)c2ccccc21` showed an IC50 of 80 nM.

`N#CCCCCn1c(=O)c(C2=Nc3ccccc3S(=O)(=O)N2)c(O)c2ccccc21` showed an IC50 of 750 nM.

Regarding `CC(C)CCn1c(=O)c(C2=NS(=O)(=O)c3ccccc3N2)c(O)c2cc(NC(=O)CC(C)C)ccc21`, half-maximal inhibition (IC50) was put at 6500 nM.

With `CC(C)CCn1c(=O)c(C2=Nc3ccccc3S(=O)(=O)N2)c(O)c2cc(N)ccc21`, the midpoint of inhibition, the IC50, lay at 62 nM.

Take `CC(C)CCn1c(=O)c(C2=Nc3ccccc3S(=O)(=O)N2)cc2ccccc21`: the half-inhibitory concentration (IC50) is above 10000 nM.

`CC(C)CCn1c(=O)c(C2=Nc3ccccc3S(=O)(=O)N2)c(O)c2cc(F)ccc21` returned an IC50 of 20 nM.

Consider `O=S1(=O)N=C(c2c(O)nc3ccccc3c2O)Nc2ccccc21`, for which the IC50 is above 10000 nM.

The compound `O=c1c(C2=NS(=O)(=O)c3ccccc3N2)c(O)c2ccccc2n1CC1CCCC1` showed an IC50 of 132 nM. In other words, the sub-micromolar range.

`O=c1c(C2=Nc3ccccc3S(=O)(=O)N2)c(O)c2ccccc2n1-c1ccccc1` displayed an IC50 above 10000 nM.

Compound `CS(=O)(=O)CCn1c(=O)c(C2=Nc3ccccc3S(=O)(=O)N2)c(O)c2ccccc21` yielded an IC50 of 2320 nM.

In turn, `CCn1c(=O)c(C2=Nc3ccccc3S(=O)(=O)N2)c(O)c2ccccc21` showed an IC50 of 2220 nM.

For the compound `O=c1c(C2=NS(=O)(=O)c3ccccc3N2)c(O)c2ccccc2n1CCCc1ccccc1`, the IC50 was above 10000 nM.

For the compound `CC(C)(C)CCn1c(=O)c(C2=NS(=O)(=O)c3ccccc3N2)c(O)c2ccccc21`, inhibition was half-maximal at 21 nM (IC50).

`CC(C)CCn1c(=O)c(C2=NS(=O)(=O)c3ccccc3N2)c(O)c2cc(OCCCC#N)ccc21` came in with an IC50 of 4330 nM.

`C=CCCn1c(=O)c(C2=NS(=O)(=O)c3ccccc3N2)c(O)c2ccccc21` came in with a half-maximal inhibitory concentration (IC50) of 90 nM. This IC50 lies about 48-fold lower than the previous one.

`NC(=O)CCCn1c(=O)c(C2=Nc3ccccc3S(=O)(=O)N2)c(O)c2ccccc21` had an IC50 above 10000 nM.

In turn, `CC(C)Cn1c(=O)c(C2=Nc3ccccc3S(=O)(=O)N2)c(O)c2ccccc21` registered an IC50 of 108 nM.

`C#CCCn1c(=O)c(C2=NS(=O)(=O)c3ccccc3N2)c(O)c2ccccc21`: it took 118 nM to reach half-maximal inhibition (IC50). This IC50 and that of the compound before are within 1.5-fold of each other.

`CCCCn1c(=O)c(-c2nc3ccccc3[nH]2)c(O)c2ccccc21` registered a half-inhibitory concentration (IC50) above 10000 nM.

`CC(C)CCn1c(=O)c(C2=NS(=O)(=O)c3ccccc3N2)c(N)c2ccccc21` had an IC50 above 10000 nM.

On to `CCOC(=O)CNc1ccc2c(c1)c(O)c(C1=Nc3ccccc3S(=O)(=O)N1)c(=O)n2CCC(C)C`, for which the IC50 was 115 nM. That is a sub-micromolar value.

`CCOC(=O)c1ccc2c(c1)c(O)c(C1=NS(=O)(=O)c3ccccc3N1)c(=O)n2CCC(C)C` showed an IC50 above 10000 nM.

Compound `CC(C)CCn1c(=O)c(C2=NS(=O)(=O)c3ccccc3N2)c(O)c2c(Cl)cccc21` gave an IC50 of 33 nM. In other words, the double-digit nanomolar range.

For `CC(C)CCn1c(=O)c(C2=Nc3ccccc3S(=O)(=O)N2)c(O)c2ccc(F)cc21`, half-maximal inhibition (IC50) required 554 nM.

Turning to `O=c1c(C2=NS(=O)(=O)c3ccccc3N2)c(O)c2ccccc2n1CCc1ccsc1`, the IC50 was above 10000 nM.

`CC(C)CCn1c(=O)c(C2=Nc3ccccc3S(=O)(=O)N2)c(O)c2cccc([N+](=O)[O-])c21` returned an IC50 above 10000 nM.

`CCC(C)CCn1c(=O)c(C2=NS(=O)(=O)c3ccccc3N2)c(O)c2ccccc21` (centres undefined) gave an IC50 of 65 nM. This counts as double-digit nanomolar.

`CC(C)CCn1cc(C2=NS(=O)(=O)c3ccccc3N2)c(=O)c2ccccc21` had an IC50 above 10000 nM.

`CSCCn1c(=O)c(C2=NS(=O)(=O)c3ccccc3N2)c(O)c2ccccc21`: half-maximal inhibition (IC50) was put at 53 nM.

For the compound `O=c1c(C2=NS(=O)(=O)c3ccccc3N2)c(O)c2ccccc2n1Cc1ccc(Br)cc1`, the midpoint of inhibition, the IC50, lay at 95 nM. Against the preceding compound, the IC50 is about 1.8-fold higher.

`O=c1c(C2=Nc3ccccc3S(=O)(=O)N2)c(O)c2ccccc2n1CC1CCC1` gave a concentration for half-maximal inhibition (IC50) of 49 nM.

As to `Cc1cccc2c1c(O)c(C1=Nc3ccccc3S(=O)(=O)N1)c(=O)n2CCC(C)C`, the IC50 came out at 206 nM.

Take `CC(C)CCn1c(=O)c(C2=Nc3ccccc3S(=O)(=O)N2)c(O)c2ccc([N+](=O)[O-])cc21`: the half-maximal inhibitory concentration (IC50) was above 10000 nM.

With `CC(C)CCn1c(=O)c(C2=Nc3ccccc3S(=O)(=O)N2)c(O)c2ccc(Br)cc21`, the IC50 was above 10000 nM.

`O=c1c(C2=Nc3ccccc3S(=O)(=O)N2)c(O)c2ccccc2n1Cc1cccc(Br)c1` came in with an IC50 of 36 nM.

The compound `CC(C)CCn1c(=O)c(C2=Nc3ccccc3S(=O)(=O)N2)c(O)c2c(Br)cccc21` displayed an IC50 of 105 nM.

In turn, `CC(C)CCn1c(=O)c(C2=NS(=O)(=O)c3ccccc3N2)c(O)c2cc(I)ccc21` showed an IC50 above 10000 nM.

Compound `O=c1c(C2=NS(=O)(=O)c3ccccc3N2)c(O)c2ccccc2n1CCc1ccccc1` came in with an IC50 above 10000 nM.

Compound `O=c1c(C2=NS(=O)(=O)c3ccccc3N2)c(O)c2ccccc2n1Cc1ccncc1` came in with an IC50 of 61 nM.

`O=c1c(C2=NS(=O)(=O)c3ccccc3N2)c(O)c2ccccc2n1CC1CCOC1` (centres undefined): half-maximal inhibition (IC50) required 484 nM.

In the case of `NCCCCn1c(=O)c(C2=NS(=O)(=O)c3ccccc3N2)c(O)c2ccccc21`, the IC50 is above 10000 nM.

The compound `CC(C)CCn1c(=O)c(C2=Nc3ccccc3S(=O)(=O)N2)c(O)c2cc(Br)ccc21` returned a concentration for half-maximal inhibition (IC50) of 205 nM.

`CC(C)(C)c1ccc(Cn2c(=O)c(C3=NS(=O)(=O)c4ccccc4N3)c(O)c3ccccc32)cc1`: the IC50 is above 10000 nM.

In turn, `CC(C)CCn1c(=O)n(C2=Nc3ccccc3S(=O)(=O)N2)c(=O)c2ccccc21` came in with an IC50 of 9940 nM.

With `CN(C)C(=O)Cn1c(=O)c(C2=Nc3ccccc3S(=O)(=O)N2)c(O)c2cc(F)ccc21`, the IC50 was above 10000 nM.

For the compound `COCCn1c(=O)c(C2=Nc3ccccc3S(=O)(=O)N2)c(O)c2ccccc21`, the IC50 was found to be 819 nM.

Compound `CC(C)CCn1c(=O)c(C2=Nc3ccccc3S(=O)(=O)N2)c(O)c2cc(OCC(N)=O)ccc21` had an IC50 of 24 nM.

In turn, `C=CCn1c(=O)c(C2=Nc3ccccc3S(=O)(=O)N2)c(O)c2ccccc21` returned an IC50 above 10000 nM.

Take `O=c1c(C2=Nc3ccccc3S(=O)(=O)N2)c(O)c2ccccc2n1CC1CC1`: the IC50 was 78 nM.

Regarding `O=c1c(C2=NS(=O)(=O)c3ccccc3N2)c(O)c2ccccc2n1Cc1cccnc1`, the IC50 was 316 nM.

In the case of `CC(C)CCn1c(=O)c(C2=NS(=O)(=O)c3ccccc3N2)c(O)c2ccc(/C=C/C(N)=O)cc21`, the IC50 is above 10000 nM.

On to `O=c1c(C2=Nc3ccccc3S(=O)(=O)N2)c(O)c2ccccc2n1Cc1cccc([N+](=O)[O-])c1`, for which the IC50 came out at 81 nM.

Take `CC(C)CCn1c(=O)c(C2=NS(=O)(=O)c3ccccc3N2)c(O)c2cc(NC(=O)c3ccccc3)ccc21`: it took 4230 nM to reach half-maximal inhibition (IC50).

On to `O=c1c(C2=Nc3ccccc3S(=O)(=O)N2)c(O)c2ccccc2n1CCc1cccs1`, for which the IC50 is above 10000 nM.

Compound `CCCn1c(=O)c(C2=Nc3ccccc3S(=O)(=O)N2)c(O)c2ccccc21` registered an IC50 of 1550 nM.

`O=c1c(C2=Nc3ccccc3S(=O)(=O)N2)c(O)c2cccc(F)c2n1CCC1CC1` returned an IC50 of 90 nM.

In turn, `O=c1c(C2=NS(=O)(=O)c3ccccc3N2)c(O)c2ccccc2n1CC1CCCO1` (centres undefined) yielded an IC50 of 528 nM.

`CC(=O)Nc1ccc2c(c1)c(O)c(C1=NS(=O)(=O)c3ccccc3N1)c(=O)n2CCC(C)C` yielded an IC50 above 10000 nM.

For the compound `O=c1c(C2=Nc3ccccc3S(=O)(=O)N2)c(O)c2ccccc2n1Cc1ccccc1`, half-maximal inhibition (IC50) was put at 82 nM. In other words, the double-digit nanomolar range.
